Tested on: CT26 murine colon carcinoma
Test: Efficacy study in the mouse colorectal cancer model CT26 (Example 1G)
Type: in vivo
Settings: CT26 in Balb/c mice, FIG. 3
Procedure: CT26 is a murine colon carcinoma cell line obtained from ATCC. CT26 cells were cultured in RPMI supplemented with 10% FBS. 5×10^5 CT26 cells in 100 μl PBS were implanted subcutaneously in 6-8 week old female, Balb/c mice. Dosing for the efficacy study starts 4 days post implant: AHR antagonist was dosed orally, every day (QD) at or 10 mg/kg for 3 weeks. anti-PD-1 (BioXcell RMP1-14) was twice a week, intraperitoneally (IP) at 10 mg/kg for five total doses. Tumors were monitored by caliper measurement every 2-3 days and body weight measured three times per week.

SMILES: Cc1cnn2c(NCCc3c[nH]c4ccccc34)cc(-c3cncc(F)c3)nc12 [I-70, 5-(5-Fluoro-3-pyridyl)-N-[2-(1H-indol-3-yl)ethyl]-3-methyl-pyrazolo[1,5-a]pyrimidin-7-amine]
- Tumor growth (I-70 alone, orally QD 10 mg/kg for 3 weeks): inhibited
- Tumor growth (I-70 in combination with anti-PD-1 (IP 10 mg/kg twice a week)): inhibited
